Reference: patent US10844045B2, “Pharmaceutical salts N-(2-(2-(dimethylamino)ethoxy)-4-methoxy-5-((4-(1-methyl-1H-indol-3-yl)pyrimidin-2-yl)amino)phenyl)acrylamide and crystalline forms thereof” (Beta Pharma, Inc., priority 2016, dated 2020)
Counter-ions that a name gives are not always drawn. Like-named read-outs stand apart in the source and are kept apart here.

What was measured:
[1] = Dynamic vapor sorption (DVS); assay type: physicochemical; settings: for hygroscopicity classification according to DVS results / weight gain (DVS): from 0 to 80% RH
Solubility of salt forms = assay type: physicochemical; settings: for Final pH: final pH of the solubility test
[2] = tested on: kinase domain of the T790M double mutant; settings: cited from earlier work

C=CC(=O)Nc1cc(Nc2nccc(-c3cn(C)c4ccccc34)n2)c(OC)cc1OCCN(C)C [3 (Form 2B), N-(2-(2-(Dimethylamino)ethoxy)-4-methoxy-5-((4-(1-methyl-1H-indol-3-yl)pyrimidin-2-yl)amino)phenyl)acrylamide methanesulfonate (1:1)]
DVS Sorption [1]: 14.44%

C=CC(=O)Nc1cc(Nc2nccc(-c3cn(C)c4ccccc34)n2)c(OC)cc1OCCN(C)C [Compound 1, N-(2-(2-(Dimethylamino)ethoxy)-4-methoxy-5-((4-(1-methyl-1H-indol-3-yl)pyrimidin-2-yl)amino)phenyl)acrylamide]
Solubility (Solubility of salt forms): 50 µg/mL | Final pH (Solubility of salt forms): 6.2 | inhibition of the kinase domain of the T790M double mutant [2]: effectively inhibits

C=CC(=O)Nc1cc(Nc2nccc(-c3cn(C)c4ccccc34)n2)c(OC)cc1OCCN(C)C [Compound 2, N-(2-(2-(Dimethylamino)ethoxy)-4-methoxy-5-((4-(1-methyl-1H-indol-3-yl)pyrimidin-2-yl)amino)phenyl)acrylamide methanesulfonate (1:1)]
hygroscopicity classification according to DVS results [1]: hygroscopic | weight gain (DVS) [1]: 14.44% | DVS Sorption ([1]; listed as 2 (Form 2A)): 0.91% | Solubility (Solubility of salt forms): >53000 µg/mL | Final pH (Solubility of salt forms): 4.9

C=CC(=O)Nc1cc(Nc2nccc(-c3cn(C)c4ccccc34)n2)c(OC)cc1OCCN(C)C.Cl [Compound 3, N-(2-(2-(Dimethylamino)ethoxy)-4-methoxy-5-((4-(1-methyl-1H-indol-3-yl)pyrimidin-2-yl)amino)phenyl)acrylamide hydrochloride (1:1)]
DVS Sorption [1]: 0.76% | hygroscopicity classification according to DVS results [1]: slightly hygroscopic | weight gain (DVS) [1]: 0.76% | Final pH (Solubility of salt forms): 6.0 | Solubility (Solubility of salt forms; read-out: Solubility): 810 µg/mL

C=CC(=O)Nc1cc(Nc2nccc(-c3cn(C)c4ccccc34)n2)c(OC)cc1OCCN(C)C [Compound 4, N-(2-(2-(Dimethylamino)ethoxy)-4-methoxy-5-((4-(1-methyl-1H-indol-3-yl)pyrimidin-2-yl)amino)phenyl)acrylamide sulfate (1:1)]
DVS Sorption [1]: 10.60% | hygroscopicity classification according to DVS results [1]: hygroscopic | weight gain (DVS) [1]: 10.60% | Solubility (Solubility of salt forms): >79000 µg/mL | Final pH (Solubility of salt forms): 2.4

C=CC(=O)Nc1cc(Nc2nccc(-c3cn(C)c4ccccc34)n2)c(OC)cc1OCCN(C)C.Cc1ccc(S(=O)(=O)O)cc1 [Compound 5, N-(2-(2-(Dimethylamino)ethoxy)-4-methoxy-5-((4-(1-methyl-1H-indol-3-yl)pyrimidin-2-yl)amino)phenyl)acrylamide p-toluenesulfonate (1:1)]
DVS Sorption [1]: 1.86% | hygroscopicity classification according to DVS results [1]: slightly hygroscopic | weight gain (DVS) [1]: 1.86% | Final pH (Solubility of salt forms): 5.8 | Solubility (Solubility of salt forms; read-out: Solubility): 530 µg/mL

C=CC(=O)Nc1cc(Nc2nccc(-c3cn(C)c4ccccc34)n2)c(OC)cc1OCCN(C)C [Compound 6, N-(2-(2-(Dimethylamino)ethoxy)-4-methoxy-5-((4-(1-methyl-1H-indol-3-yl)pyrimidin-2-yl)amino)phenyl)acrylamide citrate (1:1)]
Solubility (Solubility of salt forms): 6900 µg/mL | Final pH (Solubility of salt forms): 4.6
